In patent US20110039892A1, “IMINOPYRIDINE DERIVATIVE AND USE THEREOF” (TAKEDA PHARMACEUTICAL COMPANY LIMITED, priority 2008, published 2011) one finds inhibition data, which are given here for ten molecules.

The experiment concerns the target T1, human α1D adrenergic receptor (Homo sapiens, UniProt P25100).
T1 construct: expressed in transfected cells; membrane fraction used
T1 sequence (P25100 1-572): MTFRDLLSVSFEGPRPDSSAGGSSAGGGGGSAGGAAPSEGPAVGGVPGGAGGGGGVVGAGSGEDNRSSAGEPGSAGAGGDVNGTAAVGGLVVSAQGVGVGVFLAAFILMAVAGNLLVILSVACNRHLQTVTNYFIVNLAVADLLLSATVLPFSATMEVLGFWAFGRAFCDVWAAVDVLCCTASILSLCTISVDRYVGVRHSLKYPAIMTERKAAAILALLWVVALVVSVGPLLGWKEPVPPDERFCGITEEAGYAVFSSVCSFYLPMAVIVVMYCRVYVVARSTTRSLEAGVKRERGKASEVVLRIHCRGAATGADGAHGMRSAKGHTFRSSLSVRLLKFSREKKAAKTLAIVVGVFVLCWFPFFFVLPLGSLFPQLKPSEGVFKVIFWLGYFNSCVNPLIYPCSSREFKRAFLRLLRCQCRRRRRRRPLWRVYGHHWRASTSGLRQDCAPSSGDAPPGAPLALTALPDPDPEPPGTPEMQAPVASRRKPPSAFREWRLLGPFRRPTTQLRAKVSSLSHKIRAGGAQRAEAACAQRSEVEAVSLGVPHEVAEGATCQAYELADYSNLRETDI
The experiment in a line: Measurement of α1D adrenergic receptor binding inhibitory activity ([3H]-prazosin binding to membrane fraction of CHO-K1 cells expressing the receptor). Particulars: compound at 1 μM; [3H]-prazosin 2.5 nM; membrane fraction 20 μg/well; room temperature, 1 hr; read-out: Binding inhibitory rate (%) (α1D adrenergic receptor binding inhibitory rate). As for the experimental part:
Measurement of α1D Adrenergic Receptor Binding Inhibitory Activity
(i) Preparation of Human α1D Adrenergic Receptor Expression Plasmid
α1D Adrenergic Receptor Gene was Cloned from Human Liver cDNA by the PCR method. PCR reaction was performed by Gene Amp PCR System 9700 (Applied Biosystems) with 50 pmol each of the primer set 5′-[…]-3′ [SEQ ID NO: 1] and 5′-[…]-3′ [SEQ ID NO: 2] prepared in reference to the base sequence of the α1D adrenergic receptor gene reported by DEBRA A. et al. (J. Pharamacol. Exp. Ter., 272, 134-142 (1995)), 200 ng of human brain hippocampus cDNA library (Takara Shuzo Co., Ltd.) as a template and TaKaRa LA-Taq DNA Polymerase (Takara Shuzo Co., Ltd.) (reaction conditions: 45 cycles of 94° C. for 15 sec, 68° C. for 3.5 min).
The PCR fragment obtained above was digested with restriction enzymes NheI (Takara Shuzo Co., Ltd.) and Kpn I (Takara Shuzo Co., Ltd.), and applied to agarose gel electrophoresis to recover DNA fragments. The DNA fragments were ligated with animal cell expression plasmid pcDNA3.1/Zeo (Invitrogen) digested with NheI and Kpn I, by DNA Ligation Kit Ver. 2 (Takara Shuzo Co., Ltd.), and transformed the competent cells of Escherichia coli JM109 to obtain plasmid, pcDNA3.1/Zeo-Adreα1D.
(ii) Introduction of Human α1D Adrenergic Receptor Expression Plasmid into CHO-K1 Cells and Preparation of Membrane Fraction
CHO-K1 cells passage cultured in HamF12 medium (Invitrogen) containing 10% fetal bovine serum (TRACE SCIENCETIFIC) in a 150 cm^2 culture flask (Corning Coaster) were detached with 0.5 g/L trypsin-0.2 g/L EDTA (Invitrogen), and the cells were washed with D-PBS(−) (Invitrogen) and centrifuged (1000 rpm, 5 min). Then, using Gene Pulser II (BioRad), DNA was introduced into the cells under the following conditions. 1×10^7 cells suspended in D-PBS(−) (700 μl) and 10 μg of pcDNA3.1/Zeo-Adreα1D were added in a 0.4 cm gap cuvette (BioRad), and electroporation was performed under voltage 0.25 kV, capacitance 960 μF. The cells were cultured in HamF12 medium containing 10% fetal bovine serum and 250 μg/mL Zeocin (Invitrogen) and the Zeocin resistance clones were selected.
Plurality of Zeocin resistance clones were selected and cultured in a cell culture flask (150 cm^2) until semiconfluent, and the cellular membrane fraction was prepared as follows.
The semiconfluent cells were detached with 0.02% EDTA containing D-PBS(−) and recovered by centrifugation. The cells were suspended in membrane preparation buffer (10 mM NaHCO3 pH 7.4, protease inhibitor cocktail (Roche)) and disrupted by 3 times of treatment in a polytron homogenizer (model PT-3100, KINEMATICA AG) at 20000 rpm for 20 seconds. After disruption, the cells were centrifuged at 2000 rpm for 10 min and the supernatant containing membrane fractions was obtained. The supernatant was centrifuged using an ultracentrifuge (model L8-70M, rotor 70 Ti, Beckman Instruments) at 30000 rpm for 1 hr to obtain a precipitate containing membrane fractions. The obtained membrane fraction of each clone was subjected to the binding experiment shown below.
The membrane fraction (20 μg/well) and [^3H]-prazosin (2.5 nM, PerkinElmer Lifescience), as a ligand, were diluted with a binding assay buffer (50 mM Tris-HCl, 10 mM MgCl2, 0.5% BSA, protease inhibitor cocktail pH 7.5), added to a 96 well microplate, and reacted at room temperature for 1 hr. For the measurement of non-specific binding, phentolamine (Sigma) was further added to 10 μM. Then, the reaction mixture was filtered and transferred to unifilter GF/C (PerkinElmer Lifescience) by using a cell harvester (PerkinElmer Lifescience). The filter was washed 3 times with ice-cooled 50 mM Tris buffer (pH 7.5). After drying the filter, MicroScinti 0 (PerkinElmer Lifescience) was added to the filter and the radioactivity was measured by TopCount (PerkinElmer Lifescience).
(iii) Evaluation of Example Compound […]

Each structure is given as a SMILES string. Structures can show the parent of a compound that is named as a salt.

As for `CC(c1cccc(Cl)c1)n1cc(Cl)cc(C(N)=O)c1=N` (stereo not shown) [Example 1, 5-chloro-1-[1-(3-chlorophenyl)ethyl]-2-imino-1,2-dihydropyridine-3-carboxamide], the inhibition at 1 µM is 100%. In the case of `N=c1c(C(N)=O)cc(Cl)cn1C1CCc2ccc(Cl)cc21` (stereo not shown) [Example 2, 5-chloro-1-(6-chloro-2,3-dihydro-1H-inden-1-yl)-2-imino-1,2-dihydropyridine-3-carboxamide] it was 102%; in that of `CC(c1ccsc1)n1cc(Cl)cc(C(N)=O)c1=N` (stereo not shown) [Example 5, 5-chloro-2-imino-1-(1-(thiophen-3-yl)ethyl)-1,2-dihydropyridine-3-carboxamide hydrochloride], 79.4%; in that of `C[C@H](c1cccc(F)c1)n1cc(Cl)cc(C(N)=O)c1=N` [Example 12, 5-chloro-1-[(1R)-1-(3-fluorophenyl)ethyl]-2-imino-1,2-dihydropyridine-3-carboxamide hydrochloride], 97%. As for `C[C@H](c1cc(F)cc(F)c1)n1cc(Cl)cc(C(N)=O)c1=N` [Example 14, 5-chloro-1-[(1R)-1-(3,5-difluorophenyl)ethyl]-2-imino-1,2-dihydropyridine-3-carboxamide hydrochloride], the inhibition at 1 µM stood at 100%. For the molecule `N=c1c(C(N)=O)cc(Cl)cn1C1(c2ccccc2)CC1` [Example 15, 5-chloro-2-imino-1-(1-phenylcyclopropyl)-1,2-dihydropyridine-3-carboxamide], the inhibition at 1 µM turned out to be 62%.

Take `N#Cc1ccc2c(c1)C(n1cc(Cl)cc(C(N)=O)c1=N)CC2` (stereo not shown) [Example 19, 5-chloro-1-(6-cyano-2,3-dihydro-1H-inden-1-yl)-2-imino-1,2-dihydropyridine-3-carboxamide hydrochloride]: the inhibition at 1 µM was 94.8%.

Regarding `C[C@H](c1ccc(F)cc1)n1cc(Cl)cc(C(N)=O)c1=N` [Example 22, 5-chloro-1-[(1R)-1-(4-fluorophenyl)ethyl]-2-imino-1,2-dihydropyridine-3-carboxamide hydrochloride], the inhibition at 1 µM was determined as 96.1%. For `C[C@H](c1cccc(C#N)c1)n1cc(Cl)cc(C(N)=O)c1=N` [Example 23, 5-chloro-1-[(1R)-1-(3-cyanophenyl)ethyl]-2-imino-1,2-dihydropyridine-3-carboxamide hydrochloride], the inhibition at 1 µM was 100%. In the case of `N=c1c(C(N)=O)cc(Cl)cn1C1CCS(=O)(=O)c2ccc(Cl)cc21` (stereo not shown) [Example 30, 5-chloro-1-(6-chloro-1,1-dioxido-3,4-dihydro-2H-thiochromen-4-yl)-2-imino-1,2-dihydropyridine-3-carboxamide hydrochloride] it was 96.9%.
